How the values were obtained:
[1] = test system: primary human hepatocytes; assay: NAD+ in primary human hepatocytes at 250 μM (Example 10); type: cell-based; conditions: four hours of incubation
Method: (§1) Cryopreserved primary human hepatocytes, sourced from Lonza were cultured and were seeded into 6 well dishes with 0.5 million cells per well. […] The cells were later spun down and extracted. The supernatant was tested via LCMS/MS for NAD^+.

[2] = test system: primary human hepatocytes; assay: NAD+ in primary human hepatocytes (Example 12); type: cell-based; conditions: 10 μM, four hours of incubation
Method: as §1

[3] = test system: HepG2 cells; assay: Cellular NAD+ levels in HepG2 cells, NAD cycling assay; type: cell-based; conditions: for NAD+ level increase at the lowest concentration: HepG2, 10 μM
Method: HepG2 cells were seeded at densities of 1 million cells per well in a 6 well plate. The next day, cells were treated with test compounds for 4 hours and were harvested using the below protocol. Each well was washed once with 2 mL ice cold PBS which was removed and 400 μL 2M HClO4 (perchloric acid) was added to each well, which was scraped and the residue transferred to 1.5 mL tubes and spun down. 100 μL of the supernatant was transferred to a clean 1.5 mL vial and 150 μL KOH/MOPS 2M/0.6M (neutralization buffer) was added to each vial under vortex which was spun down. The pH was measured following the NAD cycling protocol.
NAD standards were prepared from 0 to 0.5 μM in water as per Table 7.
The cycling reaction was prepared as follows. 10 μl samples were added followed by water to bring the volume up to 25 μl. 25 μl of each standard was used in duplicates for the reaction. Then 50 μl of mix A (cycling mix) was added to the sample and standards. Mix A contained the following:
Reaction was initiated using 25 μL enzyme mix (15 U/ml of alcohol dehydrogenase+15 U/mL of malate dehydrogenase). The samples were incubated at 37° C. for 30 minutes in a water bath and the reaction terminated by heating in a water bath for 5 minutes at 80° C. Then 25 μl of the sample was used in the detection step. 100 μl mix B, which contains following components were added to the sample.
Reaction was initiated using a start reagent (prepared by mixing 10 μl of malate dehydrogenase and 10 μl of glutamate oxaloacetic transaminase in 1 ml of water. The reading were measured at 340 nm in a envision plate reader. The results are shown in FIGS. 4A-4D.

[4] = Human hepatocyte clearance; type: in vitro ADME; conditions: human hepatocytes, 1 μM; for half-life at 1 μM: 0-90 min, read-out: T½; for hepatocyte CLint at 1 μM: read-out: Intrinsic Clearance (CL Int)
Method: (§2) A hepatocyte vial was taken out from the liquid nitrogen tank and was thawed in a water bath maintained at 37° C. The thawed cell suspension was transferred into a torsion tube containing 50 mL of thawing media (Xenotech). The thawing media containing hepatocytes was centrifuged at 1000 rpm for 5 min, the supernatant was discarded and the pellet was resuspended in 2 ml of Xenotech OptiIncubate Media. The cells were counted by using a haemocytometer after mixing an aliquot of cell suspension with equal volume of trypan blue. The cell suspension was diluted to a working density of 2 million cells with DMEM media without FBS/incubation media.
(§3) The assay was performed in duplicates (n=2). 150 μL of 2 million cell working stock of hepatocyte cell suspension was added to a 24 well plate and incubated in a 37° C. incubator, with speed of 500 RPM for 10 min. 150 μL of 2 μM working stock of test compound was incubated separately. The reaction at 0, 15, 30, 60 and 90 min was stopped by precipitating 20 μL of incubation mixture with 200 μL of acetonitrile containing internal standard. […] The supernatant was separated and diluted 1:1 with water before injecting in LC-MS/MS analysis.

[5] = test system: human hepatocytes; assay: Human hepatocyte clearance; type: in vitro ADME
Method: as §2, §3

[6] = test system: human hepatocytes; assay: Human hepatocyte stability
Method: 10 mM stock solution of test compound was prepared in DMSO and diluted to a concentration of 1 mM with DMSO. Working concentration of 2 μM was prepared by further dilution with PBS. Preincubation mixture of 150 μL of hepatocyte cell suspension (1,000,000 cells/mL, INVITROGRO HT medium buffer), was added to vials for preincubation for 10 min @37° C.
150 μL of 2 μM working stock of the test compound was added to the cell suspension and incubated at @37 C at 500 rpm. The reaction was stopped at 0, 15, 30, 60 and 90 min by precipitating 50 μL of the incubation mixture with 150 μL of acetonitrile. Samples were vortexed for 5 min at 1200 rpm and centrifuged at 4000 rpm for 10 min. 150 μL of the supernatant was diluted with 150 μL of water and injected in MS system (SCIEX, API 4500 Q Trap) for analysis.

SMILES	NAD+ level increase compared to untreated cells [1]	NAD+ level increase compared to untreated cells [2]	NAD+ level increase at the lowest concentration [3]	half-life at 1 μM [4]	hepatocyte CLint at 1 μM [4]	Remarks (clearance class) [5]	% Parent Remaining ([6]; 0 mins)	% Parent Remaining ([6]; 15 mins)	% Parent Remaining ([6]; 30 mins)	% Parent Remaining ([6]; 60 mins)	% Parent Remaining ([6]; 90 mins)	NAD+ level increase compared to nicotinic acid ([3]; HepG2, all concentrations (10-250 μM))	clearance in human hepatocytes (in words) [6]
COC(=O)[C@@H](C)N[P@](=O)(OC[C@H]1OC(OC(=O)c2cccnc2)[C@H](O)[C@@H]1O)Oc1ccccc1 (single isomer, unassigned) [Compound 103]	statistically significant NAD^+ level increases	statistically significant NAD^+ level increases	statistically significant increase	22.2 min	31.3 µL/min/1e6 cells	High	100%	63%	40%	15%	5%	–	–
COC(=O)[C@@H](C)N[P@@](=O)(OC[C@H]1OC(OC(=O)c2cccnc2)[C@H](O)[C@@H]1O)Oc1ccccc1 (single isomer, unassigned) [Compound 104]	statistically significant NAD^+ level increases	statistically significant NAD^+ level increases	statistically significant increase	48.1 min	14.4 µL/min/1e6 cells	medium clearance	100%	78%	65%	45%	24%	statistically significant increase	medium clearance

From US12168673B2 (Mitopower, Inc., priority 2022, dated 2024)
